The values below come from paper PMC6155027, “Mechanistic insights into the host-microbe interaction and pathogen exclusion mediated by the Mucus-binding protein of Lactobacillus plantarum” (Scientific Reports, 2018).

The target of this assay is T1, Mubs5s6 (Lactiplantibacillus plantarum, UniProt F9UP14).
T1 construct: gene lp_1643; last two (fifth and sixth) C-terminal Mub domains with spacers of the about 2200-residue Lp_1643 protein; 366 residues, about 40 kDa; expressed in E. coli as MBP fusion (82 kDa), MBP tag removable with Factor Xa
Put plainly: biochemical assay (details in supplement). The format is binding. The following applies: site predicted by COACH (Asn42, Gly43, Asn224, Thr227, Asn228, Gln229); assay conditions only in supplement.

T1 sequence (F9UP14 entry or part of it): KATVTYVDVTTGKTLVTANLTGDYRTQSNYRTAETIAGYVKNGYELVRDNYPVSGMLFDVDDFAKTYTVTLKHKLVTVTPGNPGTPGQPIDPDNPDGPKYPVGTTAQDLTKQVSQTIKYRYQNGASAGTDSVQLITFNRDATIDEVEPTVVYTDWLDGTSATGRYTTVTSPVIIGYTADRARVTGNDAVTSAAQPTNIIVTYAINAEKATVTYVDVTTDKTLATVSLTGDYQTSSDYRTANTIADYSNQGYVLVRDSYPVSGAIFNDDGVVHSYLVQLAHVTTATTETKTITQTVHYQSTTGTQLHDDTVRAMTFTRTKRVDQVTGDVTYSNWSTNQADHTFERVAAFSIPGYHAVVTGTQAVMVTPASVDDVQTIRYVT

Regarding `OC[C@H]1OC(O)[C@H](O)[C@@H](O)[C@@H]1O` (stereo partly shown) [glucose], the “biochemical assay (details in supplement)” value is “We could also confirm the binding of calcium and glucose by Atomic Absorption Spectroscopy and biochemical assay”.
